Columns and labels:
GSNOR = biological target: T1, GSNOR (Mus musculus, UniProt P28474); assay: Plasma GSNOR activity (GSNO-dependent NADH consumption) after PT-stroke in aged female mice; assay type: in vivo; settings: 2.5 mg/kg after PT-stroke, P<0.01
T1 construct: Plasma was isolated from freshly drawn blood after cardiac puncture under deep isoflurane anesthesia; from tissue; host or cells: plasma of aged female C57/B6-background mice after PT-stroke
Experimental: Plasma was isolated from freshly drawn blood after cardiac puncture under deep isoflurane anesthesia, and mice were sacrificed to collect brain tissue. Plasma and brain tissue samples were snap-frozen until assay.
A method of GSNO dependent NADH consumption was used to determine GSNOR activity as reported. Briefly, brain tissue was homogenized in a buffer containing 50mM Tris-HCl (pH 8.0), 150 mM NaCl, 1-mM EDTA, 0.1% Triton X-100 and 1:100 protease inhibitor cocktail and centrifuged (10, 000 g×10 minutes at 4° C.) to obtain supernatant. […] The consumption of NADH was monitored with fluorescence spectrophotometry at an excitation wavelength of 340 nm and emission at 460 nm. GSNOR activity was calculated by subtracting the rate of NADH consumption incubated in the presence of GSNO minus the rate of NADH consumption without GSNO in samples.
A sex difference was found in the basal level of plasma GSNOR activity, showing higher GSNOR activity in female mice compared to age-matched males (P<0.05; N=6/gp) as shown in FIG. 3A. […] Statistical significance was determined at P<0.05 and were indicated with asterisks or different letters indicating statistically different Means.

[1] = tested on: PT-stroke (thrombotic occlusion of distal MCA trunk); assay: Photothrombotic (PT) model of stroke in aged mice, infarct volume by TTC staining; assay type: in vivo
Experimental: Aged mice (16 ±1-mo) were subjected to PT-stroke via a novel lateral side surgical approach without craniotomy resulting in the thrombotic occlusion of distal main trunk of MCA. For the purpose, mice were anesthetized with isofluorane, prepared for surgery, and rose Bengal dye (50 mg/kgbwt in 200 uL of 1× sterile PBS) was intravenously (IV) infused. Mice were immediately put on a robotic stereotaxic frame, the head was rotated to face right side up, and the skull was exposed. The distal trunk of MCA was visualized underneath the skull bone (without craniotomy) using a 532 nm laser source (8-mm beam diameter; 4.5 mW) integrated to an ID8-iris (ThorLabs, NJ, USA). The MCA region above the zygomatic arc was exposed with the laser for 20-min from a distance of ˜2-3-mm. Following 20-min laser exposure, thrombotic occlusion of the distal trunk of MCA was confirmed using laser doppler flowmeter showing >60% drop in CBF and finally the lateral side skin wound was closed. All mice under C57/B6 background were bred, housed, used and related experimental procedures were performed in accordance with the approved protocol of Institutional Animal Care and Use Committees (IACUCs) of St. Joseph's Hospital and Medical Center (SJHMC), and Augusta University, Augusta, Ga. Effect of stroke on GSNOR expression/activity was first determined in a clinically relevant partially-humanized TE-stroke, embolic middle cerebral artery occlusion (eMCAo) model in aged (16±1-mo-old) male mice. Next, an effective dose-finding study of GRI therapy (stroke injury size) was performed in aged (16±1-mo-old) male mice in a photothrombotic (PT) model of stroke with the reduction in infarct volume as the primary outcome. The safety and benefits of the best dose of GRI therapy in reducing infarct volume as the primary outcome was also confirmed in reproductively senescent aged (16±1-mo-old) female mice subjected to PT-stroke. To test the benefits of GRI therapy during permanent ischemia, GRI was also tested in adult (14±1-weeks) mice of both sexes subjected to permanent model of middle cerebral artery ligation (pMCAL). All females were ovariectomized at the age of 12-weeks, i.e., 2-weeks prior to stroke surgery. A 2×2 factorial design was adopted [2 Sexes (MALE vs. FEMALE)×2 GRI (NO vs. YES)] such that all 4 groups of both sexes were subjected to pMCAL followed by randomization into two different treatment cohorts: GRI therapy or equal volume of Vehicle treatment. All mice were tested for behavioral outcome on a narrow beam test, relative CBF measurement using laser speckle contrast imaging (LSCI) and infarct volume size. […] Outcome measures such as brain tissue oxygenation (PbtO2), acute inflammatory genes response, neurological deficit, edema as percent (%) swelling and infarct volumes were assessed. […]

T1 sequence (P28474 whole entry): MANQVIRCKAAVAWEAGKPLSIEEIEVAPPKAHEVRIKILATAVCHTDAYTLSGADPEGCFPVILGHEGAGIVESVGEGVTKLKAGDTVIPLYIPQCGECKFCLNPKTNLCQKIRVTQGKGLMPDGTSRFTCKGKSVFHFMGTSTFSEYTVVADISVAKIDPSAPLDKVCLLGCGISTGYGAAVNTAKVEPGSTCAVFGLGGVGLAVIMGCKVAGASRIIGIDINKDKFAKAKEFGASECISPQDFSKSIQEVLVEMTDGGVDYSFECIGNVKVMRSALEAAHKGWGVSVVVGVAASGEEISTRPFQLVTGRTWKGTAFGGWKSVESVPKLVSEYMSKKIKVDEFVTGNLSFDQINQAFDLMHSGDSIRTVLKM

## Cc1cc(C(N)=O)ccc1-n1c(CCC(=O)O)ccc1-c1ccc(-n2ccnc2)cc1 [GRI therapy, N6022]
GSNOR
  post-stroke plasma GSNOR activity: significantly inhibited the post-stroke plasma GSNOR activity
[1]; aged female mice, 2.5 mg/kg, P<0.05, N=10/gp
  stroke injury (infarct volume) vs vehicle: effective in reducing the stroke injury significantly
[1]; aged male mice, 1, 2.5, 5.0 and 10 mg/kg IV 1 h after PT-stroke, N=8/gp
  neuroprotective effect (absolute infarct volume) across doses: dose-dependent neuroprotective effect
[1]; aged male mice, IV 1 h after PT-stroke
  GRI dose from which the neuroprotective effect plateaus: > 2.5 mg/kg
[1]; aged male mice, IV 1 h after PT-stroke, P<0.0001
  infarct/injury progression vs vehicle (TTC): significantly protected against the stroke and prevented the infarct/injury progression

Reference: patent US20220062262A1, “GSNO REDUCTASE INHIBITOR AS AN ADJUNCT THERAPY WITH REMOTE ISCHEMIC CONDITIONING AND THROMBOLYTIC REPERFUSION THERAPIES IN STROKE” (KING ABDULAZIZ UNIVERSITY, priority 2020, published 2022)
